Experimental findings from US20200384116A1, “SELF-ASSEMBLING VERTEPORFIN AMPHIPHILES (SAVA) FOR LOCAL CANCER THERAPY” (THE JOHNS HOPKINS UNIVERSITY, priority 2016, published 2020) are described below.

Assay type in all cases: cell-based
Assay [1] deals with SW480, PANC-1, MDA-MD-231, MDA-MD-468 and HELA cell lines. Briefly: MTT proliferation assay, non-CNS tumor cell lines. The settings on record: 12.5 μM, 5 or 6 days, in words. The protocol: (§1) Cells tested were subjected to the following protocol: Day 1: 7000 cells per well were seeded in a 96-well plate. Day 3: cells were treated with 12.5 μM of Verteporfin (treatment group) and its equivalent DMSO concentration (control group) in 200 μl of media/well. Proliferation was assessed using MTT at Day 8, 9 using the following method:
(§2) MTT stock solution (5 mg/ml) is added to each culture being assayed to equal one-tenth the original culture volume and incubated for 4 hr. At the end of the incubation period the medium is removed the converted dye is solubilized with 100% isopropanol. Absorbance of converted dye is measured at a wavelength of 570 nm.
The cell lines SW480 (colon adenocarcinoma), PANC-1 (pancreatic cancer), MDA-MD-231 (breast adenocarcinoma), MDA-MD-468 (metastatic breast carcinoma triple negative), and HELA (cervical carcinoma) were treated with 12.5 μM of the SAVA composition, Ver-RGDR, or DMSO (solvent control) for 5 days (FIG. 5a) or 6 days (FIG. 5b) in culture. Cell proliferation was then assessed using the MTT protocol. […] P-values: All cell lines tested at day 5 and 6 had p<0.0001 compared to their corresponding DMSO control. The results were statistically significant.
(Tetrazolium assays rely on reduction of a dye to a coloured formazan, in cell work by metabolically active cells.)

For assay [2], the system named is malignant meningioma cell line KT21-MG1. As to the kind of experiment: MTT cell survival, KT21-MG1. The protocol: (§3) Cells tested were subjected to the following protocol: Day 1: 7000 cells per well were seeded in a 96-well plate. […]
as §2
(§4) The malignant meningioma cell lines KT21-MG1 (FIG. 7), IOMM-Lee (FIG. 8), the primary patient-derived GBM cell lines, JHGB612 and GBM1A, and a patient-derived primary chordoma cell line, JHC7 (FIG. 9) were all tested with a SAVA composition of the present invention, using the protocol of Example 3. All should significant dose-dependent effect on cell survival when compared to controls.

In assay [3] the test system is malignant meningioma cell line IOMM-Lee. Briefly: MTT cell survival, IOMM-Lee. The protocol: as §3, §2, §4
The test system of assay [4] is primary patient-derived GBM cell line JHGB612. Briefly: MTT cell survival, JHGB612. As to conditions: dose-dependent, vs controls. The protocol: as §1, §2, §4
Assay [5] deals with primary patient-derived GBM cell line GBM1A. As to the kind of experiment: MTT cell survival, GBM1A. The settings on record: dose-dependent, vs controls. The protocol:
as §1, §2, §4

The test system of assay [6] is patient-derived primary chordoma cell line JHC7. Briefly: MTT cell survival, JHC7. The settings on record: dose-dependent, vs controls. The protocol: as §1, §2, §4

With verteporfin, the “proliferation of non-CNS tumor cells” value in assay [1] is given as “decreases proliferation”. For the same substance, the cell survival entry in assay [2] (3 days of treatment), in assay [2] (5 days of treatment), in assay [3] (3 days of treatment) and in assay [3] (5 days of treatment) was “decreases cell survival” in each case. Moreover, the “effect on proliferation and cell survival” value was “profound dose dependent effect on glioblastoma proliferation and cell survival” in assay [4]; “profound dose dependent effect on glioblastoma proliferation and cell survival” in assay [5]. Also, in assay [6], the “effect on cell survival and proliferation” value was “dose dependent effect on chordoma cell survival and proliferation”.
